Results: US11053204B2, “Pyrimidinyloxy benzene derivatives as herbicides” (FMC Corporation, priority 2015, dated 2021)

Columns and labels:
Type in all cases: in vivo
[1] = tested on: corn (Zea mays); test: Test C preemergence, plant response rating; details: Preemergence
Text: (§1) Seeds of plant species selected from blackgrass (Alopecurus myosuroides), ryegrass, Italian (Italian ryegrass, Lolium multiflorum), wheat (winter wheat, Triticum aestivum), galium (catchweed bedstraw, Galium aparine), corn (Zea mays), crabgrass, large (large crabgrass, Digitaria sanguinalis), foxtail, giant (giant foxtail, Setaria faberii), johnsongrass (Sorghum halepense), lambsquarters (Chenopodium album), morningglory (Ipomoea coccinea), nutsedge, yellow (yellow nutsedge, Cyperus esculentus), pigweed (Amaranthus retroflexus), ragweed (common ragweed, Ambrosia elatior), soybean (Glycine max), barnyardgrass (Echinochloa crus-galli), oilseed rape (Brassica napus), pigweed, palmer (palmer pigweed, Amaranthus palmeri), waterhemp (common waterhemp, Amaranthus rudis), velvetleaf (Abutilon theophrasti), kochia (Kochia scoparia), surinam grass (Brachiaria decumbens), nightshade (eastern black nightshade, Solanum ptycanthum), wild poinsettia (Euphorbia heterophylla), windgrass (Apera spica-venti), and oat, wild (wild oat Avena fatua), were planted into a blend of loam soil and sand or a silt loam soil and treated preemergence with test chemicals formulated in a non-phytotoxic solvent mixture which included a surfactant.
(§2) At the same time, plants selected from these crop and weed species and also chickweed (common chickweed, Stellaria media), buckwheat, wild (wild buckwheat, Polygonum convolvulus), wild mustard (Sinapis arvensis), field poppy (Papaver rhoeas), field violet (Viola arvensis), geranium, cutleaf (cutleaf geranium, Geranium dissectum), Canada thistle (Cirsium arvense), and speedwell (bird's-eye speedwell, Veronica persica), were planted in pots containing Sunshine Redi-Earth® planting medium comprising spaghnum peat moss, vermiculite, starter nutrients and dolomitic limestone and treated with postemergence applications of test chemicals formulated in the same manner. Plants ranged in height from 2 to 18 cm (1- to 4-leaf stage) for postemergence treatments. Treated plants and controls were maintained in a greenhouse for 13 to 15 d, after which time all species were compared to controls and visually evaluated. Plant response ratings, summarized in Table C, are based on a scale of 0 to 100 where 0 is no effect and 100 is complete control. A dash (-) response means no test result.

[2] = tested on: oilseed rape (Brassica napus); test: Test C preemergence, plant response rating; details: Preemergence
Text: as §1, §2

[3] = tested on: nutsedge, yellow (yellow nutsedge, Cyperus esculentus); test: Test C preemergence, plant response rating; details: Preemergence
Text: as §1, §2

[4] = tested on: foxtail, giant (giant foxtail, Setaria faberii); test: Test C preemergence, plant response rating; details: Preemergence
Text: as §1, §2

[5] = tested on: blackgrass (Alopecurus myosuroides); test: Test C preemergence, plant response rating; details: Preemergence
Text: as §1, §2

[6] = tested on: waterhemp (common waterhemp, Amaranthus rudis); test: Test C preemergence, plant response rating; details: Preemergence
Text: as §1, §2

[7] = tested on: lambsquarters (Chenopodium album); test: Test C preemergence, plant response rating; details: Preemergence
Text: as §1, §2

[8] = tested on: ryegrass, Italian (Italian ryegrass, Lolium multiflorum); test: Test C preemergence, plant response rating; details: Preemergence
Text: as §1, §2

[9] = tested on: velvetleaf (Abutilon theophrasti); test: Test C preemergence, plant response rating; details: Preemergence
Text: as §1, §2

[10] = tested on: soybean (Glycine max); test: Test C preemergence, plant response rating; details: Preemergence
Text: as §1, §2

[11] = tested on: morningglory (Ipomoea coccinea); test: Test C preemergence, plant response rating; details: Preemergence
Text: as §1, §2

[12] = tested on: wheat (winter wheat, Triticum aestivum); test: Test C preemergence, plant response rating; details: Preemergence
Text: as §1, §2

[13] = tested on: ragweed (common ragweed, Ambrosia elatior); test: Test C preemergence, plant response rating; details: Preemergence
Text: as §1, §2

[14] = tested on: crabgrass, large (large crabgrass, Digitaria sanguinalis); test: Test C preemergence, plant response rating; details: Preemergence
Text: as §1, §2

[15] = tested on: oilseed rape (Brassica napus); test: Test C postemergence, plant response rating; details: for Plant response rating, Oilseed Rape: scale 0 to 100; for Oilseed Rape plant response rating: scale 0 to 100 (0 no effect, 100 complete control)
Text: as §1, §2

[16] = tested on: foxtail, giant (giant foxtail, Setaria faberii); test: Test C postemergence, plant response rating; details: for Plant response rating, Foxtail, Giant: scale 0 to 100; for Foxtail, Giant plant response rating: scale 0 to 100 (0 no effect, 100 complete control)
Text: as §1, §2

[17] = tested on: blackgrass (Alopecurus myosuroides); test: Test C postemergence, plant response rating; details: for Plant response rating, Blackgrass: scale 0 to 100; for Blackgrass plant response rating: scale 0 to 100 (0 no effect, 100 complete control)
Text: as §1, §2

[18] = tested on: velvetleaf (Abutilon theophrasti); test: Test C postemergence, plant response rating; details: for Plant response rating, Velvetleaf: scale 0 to 100; for Velvetleaf plant response rating: scale 0 to 100 (0 no effect, 100 complete control)
Text: as §1, §2

[19] = tested on: morningglory (Ipomoea coccinea); test: Test C postemergence, plant response rating; details: for Plant response rating, Morningglory: scale 0 to 100; for Morningglory plant response rating: scale 0 to 100 (0 no effect, 100 complete control)
Text: as §1, §2

[20] = tested on: wheat (winter wheat, Triticum aestivum); test: Test C postemergence, plant response rating; details: for Plant response rating, Wheat: scale 0 to 100; for Wheat plant response rating: scale 0 to 100 (0 no effect, 100 complete control)
Text: as §1, §2

CCCC(=O)c1c(Br)cccc1Oc1ncc(Cl)cn1 [Compound 75]
80: Plant response rating, Blackgrass ([5]; 62 g ai/ha, scale of 0 to 100) | Plant response rating, Oilseed Rape ([15]; 31 g ai/ha) | Oilseed Rape plant response rating ([15]; 62 g ai/ha)
95: Plant response rating, Waterhemp ([6]; 31 g ai/ha, scale 0 to 100) | Oilseed Rape plant response rating ([15]; 125 g ai/ha)
70: Plant response rating, Lambsquarters ([7]; 125 g ai/ha, scale of 0 to 100) | Velvetleaf plant response rating ([18]; 62 g ai/ha)
50: Plant response rating, Soybean ([10]; 125 g ai/ha, scale of 0 to 100)
85: Plant response rating, Crabgrass, Large ([14]; 31 g ai/ha, scale 0 to 100)
98: Plant response rating, Foxtail, Giant ([4]; 125 g ai/ha, scale of 0 to 100) | Plant response rating, Waterhemp ([6]; 125 g ai/ha, scale of 0 to 100) | Plant response rating, Waterhemp ([6]; 62 g ai/ha, scale 0 to 100) | Plant response rating, Crabgrass, Large ([14]; 62 g ai/ha, scale of 0 to 100) | Plant response rating, Crabgrass, Large ([14]; 125 g ai/ha, scale of 0 to 100)
25: Plant response rating, Foxtail, Giant ([4]; 31 g ai/ha, scale 0 to 100) | Plant response rating, Velvetleaf ([9]; 125 g ai/ha, scale of 0 to 100) | Foxtail, Giant plant response rating ([16]; 125 g ai/ha)
15: Plant response rating, Ryegrass, Italian ([8]; 125 g ai/ha, scale of 0 to 100) | Plant response rating, Morningglory ([19]; 31 g ai/ha)
20: Plant response rating, Nutsedge, Yellow ([3]; 125 g ai/ha, scale of 0 to 100) | Plant response rating, Morningglory ([11]; 62 g ai/ha, scale 0 to 100) | Morningglory plant response rating ([19]; 62 g ai/ha)
30: Blackgrass plant response rating ([17]; 125 g ai/ha) | Plant response rating, Velvetleaf ([18]; 16 g ai/ha)
10: Plant response rating, Oilseed Rape ([2]; 62 g ai/ha, scale 0 to 100) | Plant response rating, Lambsquarters ([7]; 31 g ai/ha, scale 0 to 100) | Plant response rating, Soybean ([10]; 62 g ai/ha, scale 0 to 100) | Plant response rating, Morningglory ([11]; 125 g ai/ha, scale of 0 to 100) | Plant response rating, Wheat ([12]; 125 g ai/ha, scale of 0 to 100) | Plant response rating, Wheat ([12]; 62 g ai/ha, scale 0 to 100) | Plant response rating, Foxtail, Giant ([16]; 16 g ai/ha) | Plant response rating, Foxtail, Giant ([16]; 31 g ai/ha) | Foxtail, Giant plant response rating ([16]; 62 g ai/ha) | Blackgrass plant response rating ([17]; 62 g ai/ha) | Wheat plant response rating ([20]; 125 g ai/ha)
65: Plant response rating, Foxtail, Giant ([4]; 62 g ai/ha, scale of 0 to 100) | Plant response rating, Crabgrass, Large ([14]; 16 g ai/ha, scale 0 to 100) | Morningglory plant response rating ([19]; 125 g ai/ha)
35: Plant response rating, Lambsquarters ([7]; 62 g ai/ha, scale 0 to 100) | Plant response rating, Velvetleaf ([9]; 62 g ai/ha, scale 0 to 100) | Plant response rating, Velvetleaf ([18]; 31 g ai/ha)
60: Plant response rating, Oilseed Rape ([15]; 16 g ai/ha)
5: Plant response rating, Corn ([1]; 125 g ai/ha, scale of 0 to 100) | Plant response rating, Blackgrass ([5]; 31 g ai/ha, scale 0 to 100) | Plant response rating, Ryegrass, Italian ([8]; 31 g ai/ha, scale 0 to 100) | Plant response rating, Ryegrass, Italian ([8]; 62 g ai/ha, scale 0 to 100) | Plant response rating, Velvetleaf ([9]; 31 g ai/ha, scale 0 to 100) | Plant response rating, Ragweed ([13]; 125 g ai/ha, scale of 0 to 100) | Plant response rating, Blackgrass ([17]; 31 g ai/ha) | Plant response rating, Morningglory ([19]; 16 g ai/ha) | Plant response rating, Wheat ([20]; 31 g ai/ha)
40: Plant response rating, Oilseed Rape ([2]; 125 g ai/ha, scale of 0 to 100)
0: Plant response rating, Corn ([1]; 62 g ai/ha, scale of 0 to 100) | Plant response rating, Corn ([1]; 16 g ai/ha, scale 0 to 100) | Plant response rating, Corn ([1]; 31 g ai/ha, scale 0 to 100) | Plant response rating, Oilseed Rape ([2]; 16 g ai/ha, scale 0 to 100) | Plant response rating, Oilseed Rape ([2]; 31 g ai/ha, scale 0 to 100) | Plant response rating, Nutsedge, Yellow ([3]; 16 g ai/ha, scale 0 to 100) | Plant response rating, Nutsedge, Yellow ([3]; 31 g ai/ha, scale 0 to 100) | Plant response rating, Nutsedge, Yellow ([3]; 62 g ai/ha, scale 0 to 100) | Plant response rating, Foxtail, Giant ([4]; 16 g ai/ha, scale 0 to 100) | Plant response rating, Blackgrass ([5]; 16 g ai/ha, scale 0 to 100) | Plant response rating, Lambsquarters ([7]; 16 g ai/ha, scale 0 to 100) | Plant response rating, Ryegrass, Italian ([8]; 16 g ai/ha, scale 0 to 100) | Plant response rating, Velvetleaf ([9]; 16 g ai/ha, scale 0 to 100) | Plant response rating, Soybean ([10]; 16 g ai/ha, scale 0 to 100) | Plant response rating, Soybean ([10]; 31 g ai/ha, scale 0 to 100) | Plant response rating, Morningglory ([11]; 16 g ai/ha, scale 0 to 100) | Plant response rating, Morningglory ([11]; 31 g ai/ha, scale 0 to 100) | Plant response rating, Wheat ([12]; 16 g ai/ha, scale 0 to 100) | Plant response rating, Wheat ([12]; 31 g ai/ha, scale 0 to 100) | Plant response rating, Ragweed ([13]; 16 g ai/ha, scale 0 to 100) | Plant response rating, Ragweed ([13]; 31 g ai/ha, scale 0 to 100) | Plant response rating, Ragweed ([13]; 62 g ai/ha, scale 0 to 100) | Plant response rating, Blackgrass ([17]; 16 g ai/ha) | Plant response rating, Wheat ([20]; 16 g ai/ha) | Wheat plant response rating ([20]; 62 g ai/ha)
75: Plant response rating, Blackgrass ([5]; 125 g ai/ha, scale of 0 to 100) | Plant response rating, Waterhemp ([6]; 16 g ai/ha, scale 0 to 100) | Velvetleaf plant response rating ([18]; 125 g ai/ha)
